Results: patent US5053070A, “Pyrimidine derivatives, preparation processes thereof, herbicide containing the same, and herbicidal compositions containing the same along with other active ingredient” (Mitsui Toatsu Chemicals, Incorporated, priority 1988, dated 1991)

Assays:
Format in all cases: in vivo
redroot pigweed [1] = assay: Upland foliar application test by mixed formulations (Test 7); details: Amaranthus retroflexus, 720 h, applied alone, 30th day, read-out: Herbicidal effects (%) Redrood pigweed Ea; for pest or weed control at 300 g/ha: 0.3 kg/ha; for pest or weed control at 1000 g/ha: 1 kg/ha
Description: (§1) Resin-made 1/10,000-are pots were filled with the soil of an upland field. Redroot pigweed, morningglories, johnsongrass, barnyardgrass and green foxtail were separately seeded and were allowed to germinate in a green house. When each plant grew to the stage of 2-3 leaves, an emulsion formulated from predetermined amounts of two test compounds of different kinds in a similar manner to the method described in Formulation Example 16 was diluted with water to a predetermined dilution rate and then sprayed at an application rate equal to 5 l per are onto the foliage of each plant by means of a pressure-operated ULV (ultra low volume) sprayer. Influence to the weeds were observed on the 30th day after the spray of the herbicides. In the table, each Ea means an acutally measured value of herbicidal activities when two kinds of herbicides were mixed. Each Ec is an expected value for herbicidal activities, calculated in accordance with the below-described calculation formula proposed by Colby et al. [Colby, S. R., Weed 15, 20-22 (1967)]. Ea>Ec indicates the existence of synergistic action while […] action. [formula] Ec: Growth inhibition rate (%) expected when Ingredient I and Ingredient II are mixed.
(§2) Ex: Growth inhibition rate (%) when treated with Ingredient I alone.
(§3) Ey: Growth inhibition rate (%) when treated with Ingredient II alone.

morningglories = assay: as above; details: Ipomoea, 720 h, applied alone, 30th day, read-out: Herbicidal effects (%) Morningglory Ea; for pest or weed control at 300 g/ha: 0.3 kg/ha; for pest or weed control at 1000 g/ha: 1 kg/ha
Description: as §1, §2, §3

johnsongrass [2] = assay: as above; details: Sorghum halepense, 720 h, applied alone, 30th day, read-out: Herbicidal effects (%) Johnsongrass Ea; for pest or weed control at 300 g/ha: 0.3 kg/ha; for pest or weed control at 1000 g/ha: 1 kg/ha
Description: as §1, §2, §3

barnyardgrass = assay: as above; details: Echinochloa crus-galli, 720 h, applied alone, 30th day, read-out: Herbicidal effects (%) Barnyardgrass Ea; for pest or weed control at 300 g/ha: 0.3 kg/ha; for pest or weed control at 1000 g/ha: 1 kg/ha
Description: as §1, §2, §3

green foxtail = assay: as above; details: applied alone, 30th day; for pest or weed control at 300 g/ha / pest or weed control at 1000 g/ha: Setaria viridis, 720 h, read-out: Herbicidal effects (%) Green foxtail Ea; for pest or weed control at 300 g/ha / Herbicidal effects (%) Green foxtail Ea: 0.3 kg/ha; for pest or weed control at 1000 g/ha: 1 kg/ha
Description: as §1, §2, §3

redroot pigweed [3] = assay: Upland foliar application test by mixed formulations, concentration gradient (Test 8); details: Amaranthus retroflexus, 960 h, applied alone, 40th day, read-out: Herbicidal effects Redrood pigweed Ea; for pest or weed control at 100 g/ha: 1 g/a; for pest or weed control at 200 g/ha: 2 g/a
Description: (§4) Resin-made 1/10,000-are pots were filled with the soil of an upland field. Redroot pigweed and johnsongrass were separately seeded and were allowed to germinate in a green house. When each plant grew to the stage of 2-3 leaves, emulsions formulated with concentration gradient from predetermined amounts of two test compounds of different kinds in a similar manner to the method described in Formulation Example 16 was diluted with water to a predetermined dilution rate and then sprayed at an application rate equal to 5 l per are onto the foliage of each plant by means of a pressure-operated ULV (ultra low volume) sprayer. Influence to the weeds were observed on the 40th day after the spray of the herbicides. The results are shown in Table 9, In the table, Ea have the same meanings as in Test 7, and Ea>Ec indicates the existence of synergistic action while Ea<Ec indicates the existence of antagonistic action.

johnsongrass [4] = assay: as above; details: Sorghum halepense, 960 h, applied alone, 40th day, read-out: Herbicidal effects Johnsongrass Ea; for pest or weed control at 100 g/ha: 1 g/a; for pest or weed control at 200 g/ha: 2 g/a
Description: as §4

COc1cccc(C=CCON=Cc2ccccc2Oc2nc(OC)cc(OC)n2)c1 [compound 38]
pest or weed control at 300 g/ha (redroot pigweed [1]): 50% | pest or weed control at 300 g/ha (morningglories): 10% | pest or weed control at 300 g/ha (johnsongrass [2]): 40% | pest or weed control at 300 g/ha (barnyardgrass): 50% | pest or weed control at 300 g/ha (green foxtail): 40%

COc1cc(OC)nc(Oc2ccccc2C=NOCc2ccccc2)n1 [Compound No. 15]
pest or weed control at 1000 g/ha (redroot pigweed [1]): 50% | pest or weed control at 1000 g/ha (morningglories): 0% | pest or weed control at 1000 g/ha (barnyardgrass): 50% | pest or weed control at 1000 g/ha (green foxtail): 20%

COc1cc(OC)nc(Oc2ccccc2C=NOCC=Cc2cccc(C)c2)n1 [Compound No. 34, 0-(3-methylcinnamyl)-2-(4,6-dimethoxy-2-pyrimidinyloxy)benzaldoxime]
pest or weed control at 300 g/ha (redroot pigweed [1]): 30% | pest or weed control at 300 g/ha (morningglories): 0% | pest or weed control at 300 g/ha (johnsongrass [2]): 30% | pest or weed control at 300 g/ha (barnyardgrass): 30% | pest or weed control at 300 g/ha (green foxtail): 30%

COc1cc(OC)nc(Oc2ccccc2C=NOCC#Cc2ccccc2)n1 [compound 42]
pest or weed control at 300 g/ha (redroot pigweed [1]): 50% | pest or weed control at 300 g/ha (morningglories): 10% | pest or weed control at 300 g/ha (johnsongrass [2]): 50% | pest or weed control at 300 g/ha (barnyardgrass): 50% | pest or weed control at 300 g/ha (green foxtail): 50%

C=C(Cl)CON=Cc1ccccc1Oc1nc(OC)cc(OC)n1 [Compound No. 14]
pest or weed control at 300 g/ha (redroot pigweed [1]): 85% | pest or weed control at 300 g/ha (morningglories): 0% | pest or weed control at 300 g/ha (johnsongrass [2]): 30% | pest or weed control at 300 g/ha (barnyardgrass): 85% | pest or weed control at 300 g/ha (green foxtail): 30%

COc1cc(OC)nc(Oc2ccccc2C=NOCC=Cc2ccccc2Cl)n1 [Compound No. 27]
pest or weed control at 300 g/ha (redroot pigweed [1]): 50% | pest or weed control at 300 g/ha (morningglories): 10% | pest or weed control at 300 g/ha (johnsongrass [2]): 30% | pest or weed control at 300 g/ha (barnyardgrass): 50% | pest or weed control at 300 g/ha (green foxtail): 30%

COc1cc(OC)nc(Oc2ccccc2C=NOCc2cccc(C)c2)n1 [compound 20]
pest or weed control at 300 g/ha (redroot pigweed [1]): 30% | pest or weed control at 300 g/ha (morningglories): 10% | pest or weed control at 300 g/ha (barnyardgrass): 30% | pest or weed control at 300 g/ha (green foxtail): 10%

C#CCON=Cc1ccccc1Oc1nc(OC)cc(OC)n1 [Compound No. 13, 0-(2-propynyl)-2-(4,6-dimethoxy-2-pyrimidinyloxy)benzaldoxime]
pest or weed control at 1000 g/ha (redroot pigweed [1]): 70% | pest or weed control at 1000 g/ha (morningglories): 10% | pest or weed control at 1000 g/ha (barnyardgrass): 70% | pest or weed control at 1000 g/ha (green foxtail): 40% | pest or weed control at 100 g/ha (redroot pigweed [3]): 20% | pest or weed control at 200 g/ha (redroot pigweed [3]): 40% | pest or weed control at 100 g/ha (johnsongrass [4]): 30% | pest or weed control at 200 g/ha (johnsongrass [4]): 50%

COc1cc(OC)nc(Oc2ccccc2C=NOCC=Cc2ccccc2C)n1 [Compound No. 39]
pest or weed control at 300 g/ha (redroot pigweed [1]): 50% | pest or weed control at 300 g/ha (morningglories): 10% | pest or weed control at 300 g/ha (johnsongrass [2]): 50% | pest or weed control at 300 g/ha (barnyardgrass): 50% | pest or weed control at 300 g/ha (green foxtail): 50% | pest or weed control at 100 g/ha (redroot pigweed [3]): 10% | pest or weed control at 200 g/ha (redroot pigweed [3]): 30% | pest or weed control at 100 g/ha (johnsongrass [4]): 10% | pest or weed control at 200 g/ha (johnsongrass [4]): 20%

CC#CCON=Cc1ccccc1Oc1nc(OC)cc(OC)n1 [compound 10]
pest or weed control at 1000 g/ha (redroot pigweed [1]): 10% | pest or weed control at 1000 g/ha (morningglories): 0% | pest or weed control at 1000 g/ha (johnsongrass [2]): 20% | pest or weed control at 1000 g/ha (barnyardgrass): 10% | pest or weed control at 1000 g/ha (green foxtail): 20%

COc1cc(OC)nc(Oc2ccccc2C=NOCC=Cc2ccc(Cl)cc2)n1 [Compound No. 28]
pest or weed control at 300 g/ha (redroot pigweed [1]): 50% | pest or weed control at 300 g/ha (morningglories): 0% | pest or weed control at 300 g/ha (johnsongrass [2]): 30% | pest or weed control at 300 g/ha (barnyardgrass): 50% | pest or weed control at 300 g/ha (green foxtail): 30%

COc1cc(OC)nc(Oc2ccccc2C=NOCC=Cc2ccc(Cl)cc2Cl)n1 [compound 30]
pest or weed control at 300 g/ha (redroot pigweed [1]): 40% | pest or weed control at 300 g/ha (morningglories): 0% | pest or weed control at 300 g/ha (johnsongrass [2]): 10% | pest or weed control at 300 g/ha (barnyardgrass): 40% | pest or weed control at 300 g/ha (green foxtail): 20% | Herbicidal effects (%) Green foxtail Ea (green foxtail): 20%

COc1cc(OC)nc(Oc2ccccc2C=NOCC=Cc2ccccc2C(F)(F)F)n1 [compound 32]
pest or weed control at 1000 g/ha (redroot pigweed [1]): 50% | pest or weed control at 1000 g/ha (morningglories): 0% | pest or weed control at 1000 g/ha (johnsongrass [2]): 30% | pest or weed control at 1000 g/ha (barnyardgrass): 50% | pest or weed control at 1000 g/ha (green foxtail): 30%

COc1cc(OC)nc(Oc2ccccc2C=NOC2CCCCC2)n1 [Compound No. 3]
pest or weed control at 1000 g/ha (morningglories): 0% | pest or weed control at 1000 g/ha (johnsongrass [2]): 40% | pest or weed control at 1000 g/ha (barnyardgrass): 40% | pest or weed control at 1000 g/ha (green foxtail): 20%

COc1cc(OC)nc(Oc2ccccc2C=NOCC=C(C)C)n1 [Compound No. 7]
pest or weed control at 300 g/ha (redroot pigweed [1]): 30% | pest or weed control at 300 g/ha (morningglories): 10% | pest or weed control at 300 g/ha (johnsongrass [2]): 40% | pest or weed control at 300 g/ha (barnyardgrass): 30% | pest or weed control at 300 g/ha (green foxtail): 50% | pest or weed control at 100 g/ha (redroot pigweed [3]): 10% | pest or weed control at 200 g/ha (redroot pigweed [3]): 50% | pest or weed control at 100 g/ha (johnsongrass [4]): 10% | pest or weed control at 200 g/ha (johnsongrass [4]): 20%

COc1cc(OC)nc(Oc2ccccc2C=NO)n1 [Compound No. 24, 2-(4,6-dimethoxy-2-pyrimidinyloxy)-benzaloxime]
pest or weed control at 300 g/ha (redroot pigweed [1]): 50% | pest or weed control at 300 g/ha (morningglories): 0% | pest or weed control at 300 g/ha (johnsongrass [2]): 20% | pest or weed control at 300 g/ha (barnyardgrass): 50% | pest or weed control at 300 g/ha (green foxtail): 20%

COc1cc(OC)nc(Oc2ccccc2C=NOCC=Cc2ccccc2)n1 [Compound No. 9]
pest or weed control at 300 g/ha (redroot pigweed [1]): 50% | pest or weed control at 300 g/ha (morningglories): 0% | pest or weed control at 300 g/ha (barnyardgrass): 50% | pest or weed control at 300 g/ha (green foxtail): 70% | Herbicidal effects (%) Green foxtail Ea (green foxtail): 70% | pest or weed control at 100 g/ha (redroot pigweed [3]): 10% | pest or weed control at 200 g/ha (redroot pigweed [3]): 30% | pest or weed control at 100 g/ha (johnsongrass [4]): 10% | pest or weed control at 200 g/ha (johnsongrass [4]): 20%

COc1cc(OC)nc(Oc2ccccc2C=NOCC=Cc2ccccc2Br)n1 [compound 40]
pest or weed control at 300 g/ha (redroot pigweed [1]): 20% | pest or weed control at 300 g/ha (morningglories): 0% | pest or weed control at 300 g/ha (barnyardgrass): 20% | pest or weed control at 300 g/ha (green foxtail): 10%

COc1cc(OC)nc(Oc2ccccc2C=NOC(C)C)n1 [compound 6]
pest or weed control at 1000 g/ha (redroot pigweed [1]): 50% | pest or weed control at 1000 g/ha (morningglories): 0% | pest or weed control at 1000 g/ha (johnsongrass [2]): 30% | pest or weed control at 1000 g/ha (barnyardgrass): 50% | pest or weed control at 1000 g/ha (green foxtail): 30%

COc1cc(OC)nc(Oc2ccccc2C=NOCC=CCl)n1 [compound 11]
pest or weed control at 1000 g/ha (redroot pigweed [1]): 30% | pest or weed control at 1000 g/ha (morningglories): 0% | pest or weed control at 1000 g/ha (barnyardgrass): 30% | pest or weed control at 1000 g/ha (green foxtail): 10%
